Reference: patent publication US20210277352A1, “ENRICHMENT SUPPLEMENT FOR ANTIMICROBAL MATRICES” (priority 2018, published 2021)
Where two headings read alike, the source gives them in different places.

Experiments:
[1] = test system: Listeria innocua (ATCC 33090); assay type: cell-based
[2] = test system: Salmonella typhimurium (ATCC 14028); conditions: 25 g food matrix, 100 mL BPW media, inoculation 10 cfu/sample, 35° C. 24 hours, mean of two replicates
Description: (§1) Individual inoculums were prepared by serially diluting each culture sample with Butterfield's Buffer (3M Company, St. Paul, Minn.). To determine the cell concentration (cfu/sample), a 1 mL aliquot of diluted sample was plated onto a […] Aerobic Count Plate (3M Company, St. Paul, Minn.), incubated, and counted according to the manufacturer's instructions. The counts (cfu) from the plates were used to calculate the final dilution required to achieve the targeted inoculum concentration.
(§2) The inoculated sample was added to a WHIRL-PAK sterile sampling bag that contained 100 mL of Buffered Peptone Water enrichment media. […] The bag was closed and the sample was mixed for 30 seconds followed by incubation at 35° C. for 24 hours. A 10 mL aliquot of the media was removed and serially diluted with Demi Fraser media (3M Company, St. Paul, Minn.). A 100 microliter sample from the final dilution was plated onto an EZ-CHROM Salmonella Plus agar plate according to the manufacturer's instructions and the plate was incubated at 37° C. for 24 hours. Colonies (cfu) that formed were counted by visual inspection. The total colony count post enrichment was calculated by adjusting the observed plate count based on the number and volume of the dilutions. The recovery of Salmonella typhimurium (cfu/mL) after enrichment is reported in Table 1 as the mean value of two replicates.

[3] = test system: Listeria innocua (ATCC 33090); conditions: 25 g food matrix, 100 mL Demi Fraser media, inoculation 1.4 cfu/sample, 35° C. 24 hours, mean of two replicates
Description: as §1
as §2, with “Demi Fraser” for “Buffered Peptone Water”, “with fresh” for “with”, “media.” for “media (3M Company, St. Paul, Minn.).”, “a Modified Oxford (MOX)” for “an EZ-CHROM Salmonella Plus”, “dilutions.” for “dilutions. The recovery of Salmonella typhimurium (cfu/mL) after enrichment is reported in Table 1 as the mean value of two replicates.”

[4] = salt in enrichment media 330 micromolar, 50 g food matrix, 200 mL Demi Fraser media, inoculation 3.7 cfu/sample, mean of two replicates
[5] = salt in enrichment media 331 micromolar, 50 g food matrix, 200 mL Demi Fraser media, inoculation 3.7 cfu/sample, mean of two replicates

## ferric ammonium citrate [Example C6H11FeNO7]
[1]; [4]
  Recovery after Enrichment: 1 × 10^4 cfu/mL

## [Ca+2].[Cl-].[Cl-] [CaCl2, calcium chloride]
[1]
  Recovery after Enrichment: 1 × 10^4 cfu/mL

## O.O.O.O.O.O.O.O=S(=O)([O-])[O-].[Fe+2] [FeSO4, ferrous sulfate heptahydrate]
[2]; FeSO4 50 mg/L
  Recovery after Enrichment: 1 × 10^6 cfu/mL
[2]; FeSO4 500 mg/L
  Recovery after Enrichment: 1 × 10^6 cfu/mL
[2]; FeSO4 2000 mg/L
  Recovery after Enrichment: 1 × 10^7 cfu/mL
[3]; FeSO4 50 mg/L
  Recovery after Enrichment: 1 × 10^5 cfu/mL
[3]; FeSO4 500 mg/L
  Recovery after Enrichment: 1 × 10^3 cfu/mL
[3]; FeSO4 2000 mg/L
  Recovery after Enrichment: 1 × 10^3 cfu/mL

## ferric citrate [Example C6H5FeO7]
[1]; [5]
  Recovery after Enrichment: 1 × 10^4 cfu/mL

## O=S(=O)([O-])[O-].[Mg+2] [MgSO4, magnesium sulfate]
[1]; salt in enrichment media 332 micromolar, 50 g food matrix, 200 mL Demi Fraser media, inoculation 3.7 cfu/sample, mean of two replicates
  Recovery after Enrichment: 1 × 10^5 cfu/mL

## [Cl-].[Cl-].[Zn+2] [ZnCl2, zinc chloride]
[1]; ZnCl2 45 mg/L, 50 g food matrix, 200 mL Demi Fraser media, inoculation 3.7 cfu/sample, 35° C. 24 hours, mean of two replicates
  Recovery after Enrichment: 1 × 10^6 cfu/mL
[1]; [4]
  Recovery after Enrichment: 1 × 10^6 cfu/mL

## [Ba+2].[Cl-].[Cl-] [BaCl2, barium chloride]
[1]; [5]
  Recovery after Enrichment: 1 × 10^4 cfu/mL
